{"source": "ChEMBL document CHEMBL1141772", "about": "“Oxygenated terpenoids from a formosan soft coral Sinularia gibberosa” (2005)", "key": {"[1]": {"assay": "Cytotoxicity against human HEPA 59T/VGH cells by MTT assay", "type": "functional", "conditions": "read-out: ED50 (the source's name)"}, "KB": {"tested_on": "KB", "assay": "Cytotoxicity against human KB cells by MTT assay", "type": "functional"}}, "note": "The source made the active and inactive calls. No cut-off for these calls is given here."}
{"molecule": "CC(C)[C@]12C=C3[C@](C)(O)CC[C@]3(OO1)[C@@H](C)CC2", "note": "(relative stereo) [PEROXYGIBBEROL]", "values": [{"measurement": "EC50", "setting": "[1]", "value": 8.2, "unit": "µg/mL"}, {"measurement": "Activity", "setting": "KB", "value": "inactive"}]}
{"molecule": "C=C1CC/C=C(\\C)C[C@H](O)/C(C(C)C)=C\\[C@H]2[C@H]1CC[C@]2(C)O", "note": "[SARCOPHYTOL L]", "values": [{"measurement": "EC50", "setting": "[1]", "value": 12.6, "unit": "µg/mL"}, {"measurement": "Activity", "setting": "KB", "value": "inactive"}]}
{"molecule": "CC(=O)CC[C@@H]1C(=O)C=C(C(C)C)CC[C@@H]1C", "note": "[GIBBERODIONE]", "values": [{"measurement": "EC50", "setting": "[1]", "value": "> 30", "unit": "µg/mL"}, {"measurement": "EC50", "setting": "KB; read-out: ED50 (the source's name)", "value": "> 30", "unit": "µg/mL"}]}
